Measurements reported in patent publication US11993593B2, “Griseofulvin compound and pharmaceutical use thereof” (Daiichi Sankyo Company, Limited, priority 2017, dated 2024).

System: Male ddY mice
Assay: Forced swim test
Type: in vivo
Conditions: Mus musculus, oral, 4 hours after administration, immobility time measured for six minutes, ratio to control group (0.5% methylcellulose)
Method: (Test Example) Forced Swim Test
Male ddY mice (4 weeks old at the time of evaluation) were used for the test in groups of 10 mice. The mice were placed in a water bath (inner diameter 14.5 cm, height 20 cm, water temperature about 24° C.) with water filled to a height of about 15 cm, and a swimming trial was carried out for 15 minutes (training trial). The next day, mice were orally administered with a suspension of each compound (10 mL/kg, solvent: 0.5% methylcellulose aqueous solution) was orally administered to the mice, and four hours later, they were placed in the water bath. Immobility time (sec) was measured for six minutes immediately after that, and the ratio of the average immobility time of each compound administration group with respect to the average immobility time of a control group (10 mL/kg administration of 0.5% methylcellulose aqueous solution without a compound) was calculated.

Work on COCCOc1cc(OC)c2c(c1Cl)O[C@]1(C2=O)C(OC)=CC(=O)C[C@H]1C [Example 2, (2S,5′R)-7-chloro-3′,4-dimethoxy-6-(2-methoxyethoxy)-5′-methyl-spiro [benzofuran-2,4′-cyclohex-2-ene]-1′,3-dione] yielded a response vs control in vivo at 10 mg/kg of 71%.

With COC1=CC(=O)C[C@@H](C)[C@]12Oc1c(Cl)c(-c3ccn(C)n3)cc(OC)c1C2=O [Example 3, (2S,5′R)-7-chloro-3′,4-dimethoxy-5′-methyl-6-(1-methylpyrazol-3-yl) spiro [benzofuran-2,4′-cyclohex-2-ene]-1′,3-dione] the response vs control in vivo at 10 mg/kg was 84%.

In the case of CCn1ccc(-c2cc(OC)c3c(c2Cl)O[C@]2(C3=O)C(OC)=CC(=O)C[C@H]2C)n1 [Example 4, (2S,5′R)-7-chloro-6-(1-ethylpyrazol-3-yl)-3′,4-dimethoxy-5′-methyl-spiro [benzofuran-2,4′-cyclohex-2-ene]-1′,3-dione], the response vs control in vivo at 10 mg/kg is reported as 61%.

COC1=CC(=O)C[C@@H](C)[C@]12Oc1c(Cl)c(-c3nnc(C)o3)cc(OC)c1C2=O [Example 5, (2S,5′R)-7-chloro-3′,4-dimethoxy-5′-methyl-6-(5-methyl-1,3,4-oxadiazol-2-yl) spiro [benzofuran-2,4′-cyclohex-2-ene]-1′,3-dione] gave a response vs control in vivo at 10 mg/kg of 62%.

With COC1=CC(=O)C[C@@H](C)[C@]12Oc1c(Cl)c(-c3nc(C)no3)cc(OC)c1C2=O [Example 6, (2S,5′R)-7-chloro-3′,4-dimethoxy-5′-methyl-6-(3-methyl-1,2,4-oxadiazol-5-yl) spiro [benzofuran-2,4′-cyclohex-2-ene]-1′,3-dione] the response vs control in vivo at 10 mg/kg was 67%.

CCc1nnc(-c2cc(OC)c3c(c2Cl)O[C@]2(C3=O)C(OC)=CC(=O)C[C@H]2C)o1 [Example 17, (2S,5′R)-7-chloro-6-(5-ethyl-1,3,4-oxadiazol-2-yl)-3′,4-dimethoxy-5′-methyl-spiro [benzofuran-2,4′-cyclohex-2-ene]-1′,3-dione] was tested, and the response vs control in vivo at 10 mg/kg was 72%.

COC1=CC(=O)C[C@@H](C)[C@]12Oc1c(Cl)c(-c3nnc(C4CCOCC4)o3)cc(OC)c1C2=O [Example 18, (2S,5′R)-7-chloro-3′,4-dimethoxy-5′-methyl-6-(5-tetrahydropyran-4-yl-1,3,4-oxadiazol-2-yl) spiro [benzofuran-2,4′-cyclohex-2-ene]-1′,3-dione] was tested, and the response vs control in vivo at 10 mg/kg was 85%.

Work on COC1=CC(=O)C[C@@H](C)[C@]12Oc1c(Cl)c(-c3nnc([C@H](C)OC)o3)cc(OC)c1C2=O [Example 21, (2S,5′R)-7-chloro-3′,4-dimethoxy-6-[5-[(1S)-1-methoxyethyl]-1,3,4-oxadiazol-2-yl]-5′-methyl-spiro [benzofuran-2,4′-cyclohex-2-ene]-1′,3-dione] yielded a response vs control in vivo at 10 mg/kg of 87%.

With CCOc1cc(-c2nnc(C)o2)c(Cl)c2c1C(=O)[C@@]1(O2)C(OC)=CC(=O)C[C@H]1C [Example 22, (2S,5′R)-7-chloro-4-ethoxy-3′-methoxy-5′-methyl-6-(5-methyl-1,3,4-oxadiazol-2-yl) spiro [benzofuran-2,4′-cyclohex-2-ene]-1′,3-dione] the response vs control in vivo at 10 mg/kg was 88%.

Work on COC1=CC(=O)C[C@@H](C)[C@]12Oc1c(Cl)c(-c3nc(C(C)OC)no3)cc(OC)c1C2=O (stereo partly drawn) [Example 24, (2S,5′R)-7-chloro-3′,4-dimethoxy-6-[3-(1-methoxyethyl)-1,2,4-oxadiazol-5-yl]-5′-methyl-spiro [benzofuran-2,4′-cyclohex-2-ene]-1′,3-dione] yielded a response vs control in vivo at 10 mg/kg of 65%.

In the case of COC1=CC(=O)C[C@@H](C)[C@]12Oc1c(Cl)c(-c3nc(C(C)(C)O)no3)cc(OC)c1C2=O [Example 25, (2S,5′R)-7-chloro-6-[3-(1-hydroxy-1-methyl-ethyl)-1,2,4-oxadiazol-5-yl]-3′,4-dimethoxy-5′-methyl-spiro [benzofuran-2,4′-cyclohex-2-ene]-1′,3-dione], the response vs control in vivo at 10 mg/kg is reported as 58%.

Compound COC1=CC(=O)C[C@@H](C)[C@]12Oc1c(Cl)c(-c3ccn[nH]3)cc(OC)c1C2=O [Example 26, (2S,5′R)-7-chloro-3′,4-dimethoxy-5′-methyl-6-(1H-pyrazol-5-yl) spiro [benzofuran-2,4′-cyclohex-2-ene]-1′,3-dione] has a response vs control in vivo at 10 mg/kg of 72%.

Compound COC1=CC(=O)C[C@@H](C)[C@]12Oc1c(Cl)c(C3=NOC4(CCOCC4)C3)cc(OC)c1C2=O [Example 28, (2S,5′R)-7-chloro-6-(1,8-dioxa-2-azaspiro [4.5]dec-2-en-3-yl)-3′,4-dimethoxy-5′-methyl-spiro [benzofuran-2,4′-cyclohex-2-ene]-1′,3-dione] has a response vs control in vivo at 10 mg/kg of 80%.

For COC1=CC(=O)C[C@@H](C)[C@]12Oc1c(Cl)c(-c3cnc(OC)nc3)cc(OC)c1C2=O [Example 30, (2S,5′R)-7-chloro-3′,4-dimethoxy-6-(2-methoxypyrimidin-5-yl)-5′-methyl-spiro [benzofuran-2,4′-cyclohex-2-ene]-1′,3-dione], the response vs control in vivo at 10 mg/kg was 70%.

Work on COC1=CC(=O)C[C@@H](C)[C@]12Oc1c(Cl)c(-c3ccc(OC)nc3)cc(OC)c1C2=O [Example 31, (2S,5′R)-7-chloro-3′,4-dimethoxy-6-(6-methoxy-3-pyridyl)-5′-methyl-spiro [benzofuran-2,4′-cyclohex-2-ene]-1′,3-dione] yielded a response vs control in vivo at 10 mg/kg of 68%.

Work on COC1=CC(=O)C[C@@H](C)[C@]12Oc1c(Cl)c(OC)cc(OC)c1C2=O [Griseofulvin, (2S,5′R)-7-chloro-3′,4,6-trimethoxy-5′-methyl-spiro [benzofuran-2,4′-cyclohex-2-ene]-1′,3-dione] yielded a response vs control in vivo at 100 mg/kg (dose 100 mg/kg) of 72%.
